# Experimental data published in patent US8624027B2, “Combination therapy for treating cancer and diagnostic assays for use therein” (AbbVie Inc., priority 2005, dated 2014).
# Where two headings read alike, the source gives them in different places.
# Assays:
# [1] = Pharmacokinetic evaluation in rat; format: in vivo; details: male, Sprague-Dawley, plasma; for AUC / Cmax: 5 mg/kg, oral; for AUC: Table 3, read-out: Pharmacokinetic area under the plasma concentration Curve (rat) AUC; for Cmax: Table 3, read-out: Pharmacokinetic peak plasma concentration (rat) Cmax; for AUC(0-inf): single 5 mg/kg oral dose, Table 1, read-out: Pharmacokinetic area under the plasma concentration Curve (rat) AUC0-∞
# Method: The pharmacokinetic behavior of compounds of this disclosure was determined following a single 2 mg/kg intravenous or 5 mg/kg oral dose in male Sprague-Dawley derived rats (n=3 per group). The compounds were prepared as 2 mg/mL solution in a 10% DMSO in PEG-400 formulation for both oral and intravenous administration. The 1 mL/kg intravenous dose was administered as a slow bolus (about 1-2 minutes) in the jugular vein of a rat under light ether anesthetic. The oral dose was administered by gavage. Serial blood samples were obtained from a tail vein of each rat prior 0.1 (IV only), 0.25, 0.5, 1, 1.5, 2, 3, 4, 6, 8 and 24 hours after dosing. The heparinized samples were thoroughly mixed and placed in an ice bath. Plasma was separated by centrifugation and stored frozen prior to analysis.
# The compounds of interest were separated from the plasma using protein precipitation with acetonitrile. A plasma (100-200 μL, sample or spiked standard) aliquot was combined with 50 μL of internal standard (structurally related analog prepared in acetonitrile) and 1 ml acetonitrile in a 96-well polypropylene deep well plate. The plates were vortexed for 30 seconds followed by centrifugation (3500 rpm×15 minutes, 4° C.). In an automated manner, the supernatant was transferred to a clean 96-well plate. The samples were evaporated to near dryness on a Micro-Vap™ under a stream of dry nitrogen over low heat (˜37° C.). The samples were reconstituted vortexing with 0.2 mL 5% DMSO in acetonitrile. A 0.1-0.2 ml aliquot of acetonitrile: 0.1% trifluoroacetic acid (20:80, by volume) was added to each well, followed by an additional 30 second vortexing. The plates were centrifuged (3500 rpm×15 minutes, 4° C.) prior to HPLC-MS/MS analysis. Samples were analyzed simultaneously with spiked plasma standards. All samples from each study were analyzed as a single batch on the LC-MS/MS.
# The compounds of interest and the internal standard were separated from each other and co-extracted contaminants on a 50×3 mm Keystone Betasil CN 5 μm column with an acetonitrile: 0.1% trifluoroacetic acid mobile phase (50:50, by volume) at a flow rate of 0.7 ml/min. Analysis was performed on a Sciex API 300™ Biomolecular Mass Analyzer using a heated nebulizer interface. Peak areas of the title compounds and internal standards were determined using the Sciex MacQuan™ software. Calibration curves were derived from peak area ratio (parent drug/internal standard) of the spiked rat plasma standards using least squares linear regression of the ratio versus the theoretical concentration. The methods were generally linear over the range of the standard curve (correlation coefficients >0.99) with an estimated quantitation limit of 0.01 μg/mL. The plasma concentration data for each animal were submitted to multi-exponential curve fitting using WinNonlin. The area under the plasma concentration-time curve from 0 to t hours (time of the last measurable plasma concentration) after dosing (AUC0-t) was calculated using the linear trapezoidal rule for the plasma concentration-time profiles. The residual area extrapolated to infinity, determined as the final measured plasma concentration (Ct) divided by the terminal elimination rate constant (β), was added to AUC0-t to produce the total area under the curve (AUC0-∞). Ki values shown in the tables below were determined using Wang's equation (Wang Z X., An Exact Mathematical Expression For Describing Competitive Binding Of Two Different Ligands To A Protein Molecule. FEBS Lett. 1995; 360:111-4)).
# [2] = tested on: NCI-H146 human small cell lung carcinoma cells; assay: Cellular efficacy in human tumor cell line (MTS viability assay); format: cell-based; details: NCI-H146, 10% human serum, 48 hours
# Method: NCI-H146 (ATCC, Manassas, Va.) human small cell lung carcinoma cells were plated 50,000 cells per well in 96-well tissue culture plates in a total volume of 100 μL tissue culture medium supplemented with 10% human serum (Invitrogen, Carlsbad, Calif.) instead of fetal bovine serum and treated with a 2-fold serial dilution of the compounds of interest from 10 μM to 0.020 μM. Each concentration was tested in duplicate at least 3 separate times. The number of viable cells following 48 hours of compound treatment was determined using the CellTiter 96® AQueous non-radioactive cell proliferation MTS assay according to manufacturer's recommendations (Promega Corp., Madison, Wis.).
# Bcl-2 protein = molecular target: T1, Bcl-2 protein (Homo sapiens, UniProt P10415, DELINS35-91DVEENRTEAPEGTESE, form not given); assay: Bcl-2 binding affinity, fluorescence polarization with fluorescein-labeled BAX peptide; details: Wang's equation, read-out: Target Binding Affinity Ki (Bcl-2)
# T1 construct: fused on or other part: A short piece of the Bcl-xL (Q07817) loop replaces Bcl-2 loop residues 35-91; The C-terminal membrane anchor is absent
# T1 sequence (P10415 with tags, fused parts or gaps with the stated changes): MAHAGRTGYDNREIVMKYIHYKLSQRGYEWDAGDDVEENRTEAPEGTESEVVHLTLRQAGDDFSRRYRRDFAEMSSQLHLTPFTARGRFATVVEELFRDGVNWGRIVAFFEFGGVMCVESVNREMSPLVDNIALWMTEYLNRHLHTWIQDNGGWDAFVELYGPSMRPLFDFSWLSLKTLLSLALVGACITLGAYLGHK
# Bcl-XL protein = Bcl-XL protein (Homo sapiens, UniProt Q07817); assay: Bcl-XL binding affinity, fluorescence polarization with fluorescein-labeled BAD peptide; details: Wang's equation, read-out: Target Binding Affinity Ki (Bcl-XL)
# Chain of Bcl-XL protein (Q07817 with tags, fused parts or gaps DEL45-84): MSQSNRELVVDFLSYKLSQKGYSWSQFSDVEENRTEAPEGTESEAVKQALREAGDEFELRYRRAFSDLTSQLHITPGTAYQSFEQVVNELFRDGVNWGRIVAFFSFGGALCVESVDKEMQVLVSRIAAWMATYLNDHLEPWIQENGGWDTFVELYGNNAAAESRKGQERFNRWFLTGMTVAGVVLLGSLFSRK
# Method: A mixture comprising 125 μL per well of assay buffer (20 mM phosphate buffer (pH 7.4), 1 mM EDTA, 50 mM NaCl, 0.05% PF-68), 6 nM of Bcl-XL protein (prepared as described in Science 1997, 275, 983-986), 1 nM fluorescein-labeled BAD peptide (prepared in-house) and the DMSO solution of the compound was shaken for 2 minutes and placed in a LJL Analyst (LJL Bio Systems, CA). A negative control (DMSO, 15 nM BAD peptide, assay buffer) and a positive control (DMSO, 1 nM BAD peptide, 6 nM Bcl-XL, assay buffer) were used to determine the range of the assay. Polarization was measured at room temperature using a continuous Fluorescein lamp (excitation 485 nm, emission 530 nm). Percentage of inhibition was determined by (1-((mP value of well-negative control)/range))×100%.
# [3] = Table 1, read-out: NCI-H146 Cellular Efficacy EC50
# [4] = Table 3, read-out: NCI-H146 Cellular Efficacy H146 EC50
Structure (SMILES),AUC(0-inf) [1] [nM·h],"EC50 [2, 3] [µM]",Ki (Bcl-2 protein) [µM],Ki (Bcl-XL protein) [µM],AUC [1] [nM·h],Cmax [1] [µM],"EC50 [2, 4] [µM]"
"O=C(NS(=O)(=O)c1ccc(N[C@H](CCN2C3CCC2CC3)CSc2ccccc2)c(S(=O)(=O)C(F)(F)F)c1)c1ccc(N2CCN(CC3=C(c4ccc(Cl)cc4)CCCC3)CC2)cc1 [Example 8, 4-(((1R)-3-(7-azabicyclo[2.2.1]hept-7-yl)-1-((phenylsulfanyl)methyl)propyl)amino)-N-(4-(4-((2-(4-chlorophenyl)cyclohex-1-en-1-yl)methyl)piperazin-1-yl)benzoyl)-3-((trifluoromethyl)sulfonyl)benzenesulfonamide]",1100,0.0212,≤ 0.001,≤ 0.001,1100,0.071,0.021
"CC1(C)CCC(c2ccc(Cl)cc2)=C(CN2CCN(c3ccc(C(=O)NS(=O)(=O)c4ccc(N[C@H](CCN5CC6CC5CO6)CSc5ccccc5)c(S(=O)(=O)C(F)(F)F)c4)cc3)CC2)C1 (stereo partly drawn) [Example 10, N-(4-(4-((2-(4-chlorophenyl)-5,5-dimethylcyclohex-1-en-1-yl)methyl)piperazin-1-yl)benzoyl)-4-(((1R)-3-(2-oxa-5-azabicyclo[2.2.1]hept-5-yl)-1-((phenylsulfanyl)methyl)propyl)amino)-3-((trifluoromethyl)sulfonyl)benzenesulfonamide]",2480,0.0342,≤ 0.001,≤ 0.001,,,
"O=C(NS(=O)(=O)c1ccc(N[C@H](CCN2CC3CC2CO3)CSc2ccccc2)c(S(=O)(=O)C(F)(F)F)c1)c1ccc(N2CCN(CC3=C(c4ccc(Cl)cc4)CCCCC3)CC2)cc1 (stereo partly drawn) [Example 12, N-(4-(4-((2-(4-chlorophenyl)cyclohept-1-en-1-yl)methyl)piperazin-1-yl)benzoyl)-4-(((1R)-3-(2-oxa-5-azabicyclo[2.2.1]hept-5-yl)-1-((phenylsulfanyl)methyl)propyl)amino)-3-((trifluoromethyl)sulfonyl)benzenesulfonamide]",2070,0.0271,≤ 0.001,≤ 0.001,,,
"O=C(NS(=O)(=O)c1ccc(N[C@H](CCN2CC3CC2CO3)CSc2ccccc2)c(S(=O)(=O)C(F)(F)Cl)c1)c1ccc(N2CCN(CC3=C(c4ccc(Cl)cc4)CCCCC3)CC2)cc1 (stereo partly drawn) [Example 13, 3-((chloro(difluoro)methyl)sulfonyl)-N-(4-(4-((2-(4-chlorophenyl)cyclohept-1-en-1-yl)methyl)piperazin-1-yl)benzoyl)-4-(((1R)-3-(2-oxa-5-azabicyclo[2.2.1]hept-5-yl)-1-((phenylsulfanyl)methyl)propyl)amino)benzenesulfonamide]",2060,0.019,≤ 0.001,≤ 0.001,,,
"CN(C)CC[C@H](CSc1ccccc1)Nc1ccc(S(=O)(=O)NC(=O)c2ccc(N3CCN(CC4=C(c5ccc(Cl)cc5)CCCCC4)CC3)cc2)cc1S(=O)(=O)C(F)(F)F [Example 17, N-(4-(4-((2-(4-chlorophenyl)cyclohept-1-en-1-yl)methyl)piperazin-1-yl)benzoyl)-4-(((1R)-3-(dimethylamino)-1-((phenylsulfanyl)methyl)propyl)amino)-3-((trifluoromethyl)sulfonyl)benzenesulfonamide]",880,0.0287,≤ 0.001,≤ 0.001,,,

# More lines, in order of falling EC50 [2, 3], values ahead:
AUC(0-inf) [1] [nM·h],"EC50 [2, 3] [µM]",Ki (Bcl-2 protein) [µM],Ki (Bcl-XL protein) [µM],Structure (SMILES),AUC [1] [nM·h],Cmax [1] [µM],"EC50 [2, 4] [µM]"
2370,0.0374,≤ 0.002,≤ 0.002,"O=C(NS(=O)(=O)c1ccc(N[C@H](CCN2CCCCCC2)CSc2ccccc2)c(S(=O)(=O)C(F)(F)F)c1)c1ccc(N2CCN(CC3=C(c4ccc(Cl)cc4)CCCC3)CC2)cc1 [Example 16, 4-(((1R)-3-(azepan-1-yl)-1-((phenylsulfanyl)methyl)propyl)amino)-N-(4-(4-((2-(4-chlorophenyl)-1-cyclohex-1-en-1-yl)methyl)piperazin-1-yl)benzoyl)-3-((trifluoromethyl)sulfonyl)benzenesulfonamide]",,,
3420,0.0309,≤ 0.001,≤ 0.001,"CC(C)N(C)CC[C@H](CSc1ccccc1)Nc1ccc(S(=O)(=O)NC(=O)c2ccc(N3CCN(CC4=C(c5ccc(Cl)cc5)CC(C)(C)CC4)CC3)cc2)cc1S(=O)(=O)C(F)(F)F [Example 14, N-(4-(4-((2-(4-chlorophenyl)-4,4-dimethylcyclohex-1-en-1-yl)methyl)piperazin-1-yl)benzoyl)-4-(((1R)-3-(isopropyl(methyl)amino)-1-((phenylsulfanyl)methyl)propyl)amino)-3-((trifluoromethyl)sulfonyl)benzenesulfonamide]",,,
2400,0.0206,≤ 0.002,≤ 0.003,"CC1(C)CCC(c2ccc(Cl)cc2)=C(CN2CCN(c3ccc(C(=O)NS(=O)(=O)c4ccc(N[C@H](CCN5CC6CC5CO6)CSc5ccccc5)c(S(=O)(=O)C(F)(F)Cl)c4)cc3)CC2)C1 (stereo partly drawn) [Example 11, 3-((chloro(difluoro)methyl)sulfonyl)-N-(4-(4-((2-(4-chlorophenyl)-5,5-dimethylcyclohex-1-en-1-yl)methyl)piperazin-1-yl)benzoyl)-4-(((1R)-3-(2-oxa-5-azabicyclo[2.2.1]hept-5-yl)-1-((phenylsulfanyl)methyl)propyl)amino)benzenesulfonamide]",,,
1880,0.0137,≤ 0.001,≤ 0.001,"O=C(NS(=O)(=O)c1ccc(N[C@H](CCN2CC3CC2CO3)CSc2ccccc2)c(S(=O)(=O)C(F)(F)F)c1)c1ccc(N2CCN(CC3=C(c4ccc(Cl)cc4)CCCC3)CC2)cc1 (stereo partly drawn) [Example 9, N-(4-(4-((2-(4-chlorophenyl)cyclohex-1-en-1-yl)methyl)piperazin-1-yl)benzoyl)-4-(((1R)-3-(2-oxa-5-azabicyclo[2.2.1]hept-5-yl)-1-((phenylsulfanyl)methyl)propyl)amino)-3-((trifluoromethyl)sulfonyl)benzenesulfonamide]",1880,0.156,0.014
1250,0.0099,≤ 0.001,≤ 0.001,"O=C(NS(=O)(=O)c1ccc(N[C@H](CCN2CCCOCC2)CSc2ccccc2)c(S(=O)(=O)C(F)(F)F)c1)c1ccc(N2CCN(CC3=C(c4ccc(Cl)cc4)CCCC3)CC2)cc1 [Example 15, N-(4-(4-((2-(4-chlorophenyl)cyclohex-1-en-1-yl)methyl)piperazin-1-yl)benzoyl)-4-(((1R)-3-(1,4-oxazepan-4-yl)-1-((phenylsulfanyl)methyl)propyl)amino)-3-((trifluoromethyl)sulfonyl)benzenesulfonamide]",,,
